One assay has as its target LCK (Homo sapiens, UniProt P06239). The assay is described as follows: Wild-type kinase panel, LCK. It counts as biochemical. Conditions: single-dose screen.
For a further assay, the target named is C-SRC (Homo sapiens, UniProt P12931). Put plainly: Wild-type kinase panel, C-SRC. It counts as biochemical. Particulars: single-dose screen.
In a further assay the target is MNK1 (Homo sapiens, UniProt Q9BUB5). The assay is described as follows: Wild-type kinase panel, MNK1. Conditions: single-dose screen. It counts as biochemical.
The next assay deals with FGR (Homo sapiens, UniProt P09769). The assay is described as follows: Wild-type kinase panel, FGR. Conditions: single-dose screen. It counts as biochemical.
A further assay deals with EPHB4 (Homo sapiens, UniProt P54760). The assay is described as follows: Wild-type kinase panel, EPHB4. It counts as biochemical. Particulars: single-dose screen.
In another assay the target is ERBB4 (Homo sapiens, UniProt Q15303). Put plainly: Wild-type kinase panel, ERBB4. It counts as biochemical. Conditions: single-dose screen.
A further assay concerns the target EPHA6 (Homo sapiens, UniProt Q9UF33). The assay is described as follows: Wild-type kinase panel, EPHA6. It counts as biochemical. Conditions: single-dose screen.
A further assay deals with ERBB2 (Homo sapiens, UniProt P04626). Put plainly: Wild-type kinase panel, ERBB2. The class given is biochemical. Particulars: single-dose screen.
Another assay deals with HCK (Homo sapiens, UniProt P08631). The assay is described as follows: Wild-type kinase panel, HCK. It counts as biochemical. Particulars: single-dose screen.
The target in a further assay is BTK (Homo sapiens, UniProt Q06187). Put plainly: Wild-type kinase panel, BTK. It counts as biochemical. Conditions: single-dose screen.
The next assay has as its target T674I PDGFRα (Homo sapiens, UniProt P16234, T674I). The assay is described as follows: HotSpot radiometric kinase assay, recombinant T674I PDGFRα. The class given is biochemical. Conditions: for inhibition of T674I PDGFRα: 500 nM screening concentration, 10 μM ATP.
The test system of assay [1] is Ba/F3 cells expressing T674I FIP1L1-PDGFRα. Put plainly: cells. Particulars: Mus musculus, BaF3, 24 h, read-out: IC50 cell growth/viability.
The subject of assay [2] is Ba/F3 cells expressing WT FIP1L1-PDGFRα. The assay is described as follows: cells. Conditions: Mus musculus, BaF3, 24 h, read-out: IC50 cell growth/viability.
Assay [3] concerns mutants of the RET tyrosine kinase. The assay is described as follows: HotSpot kinase assay, RET mutants. The class given is biochemical. Particulars: single-dose screen verified in dose-response.
In assay [4] the test system is T790M EGFR mutants (T790M, T790M/L858R, d746-750/T790M). Particulars: dose-response.
In another assay the target is BLK (Homo sapiens, UniProt P51451). Put plainly: Wild-type kinase panel, BLK. The class given is biochemical. Conditions: single-dose screen.
In the next assay the target is RIPK2 (Homo sapiens, UniProt O43353). The assay is described as follows: Wild-type kinase panel, RIPK2. It counts as biochemical. Particulars: single-dose screen.
For the next assay, the target named is TXK (Homo sapiens, UniProt P42681). The assay is described as follows: Wild-type kinase panel, TXK. It counts as biochemical. Conditions: single-dose screen.
For a further assay, the target named is JAK3 (Homo sapiens, UniProt P52333). The assay is described as follows: Wild-type kinase panel, JAK3. The class given is biochemical. Conditions: single-dose screen.
The target in another assay is CLK3 (Homo sapiens, UniProt P49761). Put plainly: Wild-type kinase panel, CLK3. The class given is biochemical. Particulars: single-dose screen.
For the next assay, the system named is LRRK2 mutants. The assay is described as follows: HotSpot kinase assay, LRRK2 mutants. It counts as biochemical. Conditions: single-dose screen verified in dose-response.
Another assay concerns the target L1196M ALK (Homo sapiens, UniProt Q9UM73, L1196M). Put plainly: HotSpot kinase assay, L1196M ALK. The class given is biochemical. Conditions: single-dose screen verified in dose-response.

Where only a bound is given, the exact number is not on record here.

Sequence of T674I PDGFRα (P16234 24-1089 T674I): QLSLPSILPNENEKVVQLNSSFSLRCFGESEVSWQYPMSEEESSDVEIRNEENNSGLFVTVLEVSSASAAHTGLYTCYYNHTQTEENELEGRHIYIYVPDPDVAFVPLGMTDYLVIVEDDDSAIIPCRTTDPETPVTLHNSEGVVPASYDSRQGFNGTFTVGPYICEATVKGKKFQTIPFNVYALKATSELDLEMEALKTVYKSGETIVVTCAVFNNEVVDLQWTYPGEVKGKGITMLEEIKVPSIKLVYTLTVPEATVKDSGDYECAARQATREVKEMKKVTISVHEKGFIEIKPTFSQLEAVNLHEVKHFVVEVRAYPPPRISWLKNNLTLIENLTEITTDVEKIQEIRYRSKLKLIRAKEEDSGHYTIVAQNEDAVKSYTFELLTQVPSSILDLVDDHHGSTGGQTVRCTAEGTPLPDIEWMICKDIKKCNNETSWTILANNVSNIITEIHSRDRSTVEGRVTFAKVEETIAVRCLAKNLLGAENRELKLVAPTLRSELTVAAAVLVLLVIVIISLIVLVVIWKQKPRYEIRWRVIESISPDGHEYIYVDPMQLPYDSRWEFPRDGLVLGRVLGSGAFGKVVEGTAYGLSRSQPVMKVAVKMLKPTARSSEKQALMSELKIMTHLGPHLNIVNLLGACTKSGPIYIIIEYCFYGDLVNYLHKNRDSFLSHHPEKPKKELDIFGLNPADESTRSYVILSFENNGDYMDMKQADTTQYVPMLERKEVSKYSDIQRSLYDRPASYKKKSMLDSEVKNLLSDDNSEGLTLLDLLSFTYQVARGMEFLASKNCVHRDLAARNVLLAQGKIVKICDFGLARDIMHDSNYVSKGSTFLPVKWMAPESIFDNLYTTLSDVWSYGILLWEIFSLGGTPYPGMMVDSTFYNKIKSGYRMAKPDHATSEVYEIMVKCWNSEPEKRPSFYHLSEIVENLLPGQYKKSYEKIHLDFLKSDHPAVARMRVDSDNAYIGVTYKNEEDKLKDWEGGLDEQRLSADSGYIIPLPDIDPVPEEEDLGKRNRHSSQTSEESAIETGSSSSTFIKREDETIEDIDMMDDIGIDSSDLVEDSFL
Sequence of BTK (Q06187 whole entry): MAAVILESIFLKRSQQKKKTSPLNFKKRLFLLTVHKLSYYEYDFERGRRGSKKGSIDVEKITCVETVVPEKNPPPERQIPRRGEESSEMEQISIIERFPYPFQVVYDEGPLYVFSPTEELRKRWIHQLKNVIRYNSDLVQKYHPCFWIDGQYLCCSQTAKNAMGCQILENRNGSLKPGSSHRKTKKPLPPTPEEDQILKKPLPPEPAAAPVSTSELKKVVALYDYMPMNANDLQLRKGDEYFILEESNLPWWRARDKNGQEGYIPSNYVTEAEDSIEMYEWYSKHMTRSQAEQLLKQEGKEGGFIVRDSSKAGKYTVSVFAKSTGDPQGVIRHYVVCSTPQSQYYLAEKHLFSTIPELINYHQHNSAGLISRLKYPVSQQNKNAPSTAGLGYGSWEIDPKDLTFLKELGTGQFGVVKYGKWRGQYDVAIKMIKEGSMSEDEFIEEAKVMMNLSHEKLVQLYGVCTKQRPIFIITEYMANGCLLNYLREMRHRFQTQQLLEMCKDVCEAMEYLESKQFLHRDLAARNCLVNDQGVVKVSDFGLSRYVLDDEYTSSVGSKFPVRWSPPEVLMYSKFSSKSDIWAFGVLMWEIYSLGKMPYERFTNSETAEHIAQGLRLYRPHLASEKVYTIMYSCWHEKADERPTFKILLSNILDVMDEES
Sequence of ERBB4 (Q15303 26-1308): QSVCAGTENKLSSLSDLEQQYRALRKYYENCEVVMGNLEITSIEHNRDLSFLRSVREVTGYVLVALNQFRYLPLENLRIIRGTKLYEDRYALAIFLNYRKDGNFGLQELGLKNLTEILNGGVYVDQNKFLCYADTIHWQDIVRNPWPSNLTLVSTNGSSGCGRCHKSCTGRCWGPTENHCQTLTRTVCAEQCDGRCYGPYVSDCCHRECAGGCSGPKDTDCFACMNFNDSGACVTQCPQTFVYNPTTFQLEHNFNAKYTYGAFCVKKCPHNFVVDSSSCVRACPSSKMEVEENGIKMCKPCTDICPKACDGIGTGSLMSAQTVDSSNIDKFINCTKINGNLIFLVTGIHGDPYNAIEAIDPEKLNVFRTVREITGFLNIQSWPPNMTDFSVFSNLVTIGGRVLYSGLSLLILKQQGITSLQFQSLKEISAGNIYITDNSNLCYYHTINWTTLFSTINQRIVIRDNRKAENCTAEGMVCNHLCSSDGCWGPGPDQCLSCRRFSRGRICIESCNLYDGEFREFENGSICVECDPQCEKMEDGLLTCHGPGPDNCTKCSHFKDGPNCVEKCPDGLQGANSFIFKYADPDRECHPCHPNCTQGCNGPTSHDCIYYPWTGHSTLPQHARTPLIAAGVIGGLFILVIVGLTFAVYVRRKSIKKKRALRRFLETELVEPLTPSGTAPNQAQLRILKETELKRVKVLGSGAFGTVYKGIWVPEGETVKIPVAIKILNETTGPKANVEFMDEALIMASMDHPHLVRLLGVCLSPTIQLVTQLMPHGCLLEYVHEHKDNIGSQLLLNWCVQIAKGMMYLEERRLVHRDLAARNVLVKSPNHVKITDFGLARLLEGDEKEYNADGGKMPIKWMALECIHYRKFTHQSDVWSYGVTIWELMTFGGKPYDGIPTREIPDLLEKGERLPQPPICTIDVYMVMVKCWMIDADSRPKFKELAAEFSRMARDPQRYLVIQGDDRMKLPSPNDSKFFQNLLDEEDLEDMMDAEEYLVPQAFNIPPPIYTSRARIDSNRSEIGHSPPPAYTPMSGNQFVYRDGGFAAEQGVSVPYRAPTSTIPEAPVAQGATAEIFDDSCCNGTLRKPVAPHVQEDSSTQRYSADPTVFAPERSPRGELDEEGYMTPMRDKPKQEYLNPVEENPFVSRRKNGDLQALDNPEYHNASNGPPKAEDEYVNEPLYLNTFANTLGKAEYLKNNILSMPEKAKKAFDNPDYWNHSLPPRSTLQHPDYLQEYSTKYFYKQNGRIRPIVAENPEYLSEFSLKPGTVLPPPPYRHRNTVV
Sequence of ERBB2 (P04626 23-1255): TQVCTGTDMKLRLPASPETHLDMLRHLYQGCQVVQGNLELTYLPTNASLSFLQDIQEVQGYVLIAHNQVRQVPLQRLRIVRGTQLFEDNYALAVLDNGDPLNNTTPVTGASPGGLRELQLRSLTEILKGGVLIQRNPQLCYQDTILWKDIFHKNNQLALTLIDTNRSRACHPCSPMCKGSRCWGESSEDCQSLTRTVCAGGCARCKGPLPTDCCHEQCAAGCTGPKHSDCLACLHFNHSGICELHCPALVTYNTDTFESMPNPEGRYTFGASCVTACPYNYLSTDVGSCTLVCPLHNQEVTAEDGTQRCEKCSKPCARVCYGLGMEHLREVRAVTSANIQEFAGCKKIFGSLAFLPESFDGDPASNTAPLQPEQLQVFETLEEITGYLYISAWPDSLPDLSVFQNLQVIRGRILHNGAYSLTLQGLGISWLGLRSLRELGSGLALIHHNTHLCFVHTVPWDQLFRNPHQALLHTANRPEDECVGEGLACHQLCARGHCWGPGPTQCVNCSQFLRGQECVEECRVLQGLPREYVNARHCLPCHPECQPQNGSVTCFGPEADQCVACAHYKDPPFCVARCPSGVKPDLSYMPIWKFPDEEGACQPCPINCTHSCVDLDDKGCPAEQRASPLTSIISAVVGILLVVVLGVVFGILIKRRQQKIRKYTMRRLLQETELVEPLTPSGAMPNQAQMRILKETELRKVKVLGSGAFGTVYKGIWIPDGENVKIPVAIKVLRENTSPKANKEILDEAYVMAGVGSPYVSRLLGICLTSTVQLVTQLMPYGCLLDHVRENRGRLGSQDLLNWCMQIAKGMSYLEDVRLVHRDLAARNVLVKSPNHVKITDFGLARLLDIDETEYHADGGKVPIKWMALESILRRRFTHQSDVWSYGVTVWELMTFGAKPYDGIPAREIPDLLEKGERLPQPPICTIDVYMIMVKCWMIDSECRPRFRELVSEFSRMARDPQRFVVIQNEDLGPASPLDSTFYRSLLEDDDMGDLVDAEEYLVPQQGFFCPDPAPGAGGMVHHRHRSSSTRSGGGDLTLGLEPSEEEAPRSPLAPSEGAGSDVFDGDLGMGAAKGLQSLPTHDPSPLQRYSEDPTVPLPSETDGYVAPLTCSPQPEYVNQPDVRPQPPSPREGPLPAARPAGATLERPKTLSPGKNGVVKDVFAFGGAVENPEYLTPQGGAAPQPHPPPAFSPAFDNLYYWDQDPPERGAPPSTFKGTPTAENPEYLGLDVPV
Sequence of RIPK2 (O43353 whole entry): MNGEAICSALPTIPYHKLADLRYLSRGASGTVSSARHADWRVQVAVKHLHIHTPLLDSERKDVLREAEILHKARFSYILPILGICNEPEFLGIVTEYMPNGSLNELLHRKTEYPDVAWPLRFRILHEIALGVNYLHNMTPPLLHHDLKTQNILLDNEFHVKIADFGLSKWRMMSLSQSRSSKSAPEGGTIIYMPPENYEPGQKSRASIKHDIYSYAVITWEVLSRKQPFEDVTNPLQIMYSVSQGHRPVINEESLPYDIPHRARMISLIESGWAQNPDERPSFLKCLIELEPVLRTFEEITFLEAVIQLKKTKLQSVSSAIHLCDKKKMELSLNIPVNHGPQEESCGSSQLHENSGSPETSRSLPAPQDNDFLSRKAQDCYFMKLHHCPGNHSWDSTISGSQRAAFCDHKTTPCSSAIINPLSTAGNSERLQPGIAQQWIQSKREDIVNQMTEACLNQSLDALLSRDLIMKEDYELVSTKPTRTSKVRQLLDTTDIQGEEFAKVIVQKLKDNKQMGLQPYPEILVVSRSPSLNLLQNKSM

As to `CN(C)C/C=C/C(=O)Nc1cc2c(Nc3ccc(F)c(Cl)c3)ncnc2cc1O[C@H]1CCOC1` [afatinib], the “inhibition of LCK” value on LCK is “more than 50%”. Further, the “inhibition of C-SRC” value against C-SRC is “more than 50%”. Also, on MNK1, the “inhibition of MNK1” value is on record as “more than 50%”. Also, the “inhibition of FGR” value at FGR is “more than 50%”. Further, the “inhibition of EPHB4” value at EPHB4 is recorded as “more than 50%”. In addition, the “inhibition of ERBB4” value against ERBB4 is “more than 50%”. In addition, the “inhibition of EPHA6” value against EPHA6 is recorded as “more than 50%”. In addition, the “inhibition of ERBB2” value against ERBB2 is “more than 50%”. The “inhibition of HCK” value against HCK is “more than 50%”. Further, the “inhibition of BTK” value against BTK is “more than 50%”.
Consider `COc1cc2ncnc(Nc3cccc(O)c3)c2cc1OC` [compound 1], for which the “fold more potent than compound 2 against T674I PDGFRα” value on T674I PDGFRα (IC50 comparison, meta vs para substituent) is 2 fold.
Turning to `COc1cc2ncnc(Nc3ccc(O)cc3)c2cc1OC` [compound 2], the “fold less potent than compound 3 against T674I PDGFRα” value at T674I PDGFRα (IC50 comparison) is listed as ~ 2 fold.
With `COc1cc2ncnc(Nc3ccc(Oc4ccccc4)cc3)c2cc1OC` [compound 3], the “potency relative to compound 4 against T674I PDGFRα” value on T674I PDGFRα (IC50 comparison) was “several-fold more potent”.
In the case of `COc1cc2ncnc(Nc3cccc(Cl)c3)c2cc1OC` [compound 5], on T674I PDGFRα (IC50 comparison), the “fold more potent than compound 7 against T674I PDGFRα” value is on record as “approximately 1.5 fold”.
On to `COc1cc2ncnc(Nc3cccc(Br)c3)c2cc1OC` [compound 6], for which, at T674I PDGFRα (IC50 comparison), the “fold more potent than compound 7 against T674I PDGFRα” value is reported as “approximately 1.5 fold”.
As for `C#Cc1cccc(Nc2ncnc3cc(OCCOC)c(OCCOC)cc23)c1` [erlotinib], the IC50 is 1640 nM in assay [1] and 14500 nM in assay [2]. Moreover, on T674I PDGFRα, the “inhibition of T674I PDGFRα” value is greater than 90%.
`Cc1ccc(Nc2nccc(N(C)c3ccc4c(C)n(C)nc4c3)n2)cc1S(N)(=O)=O` [pazopanib]: in assay [1], the IC50 was determined as 3170 nM. For the same molecule, the “inhibition of T674I PDGFRα” value at T674I PDGFRα is on record as greater than 90%.
Taken in the same sequence, the figures for `CNC(=O)c1cc(Oc2ccc(NC(=O)Nc3ccc(Cl)c(C(F)(F)F)c3)cc2)ccn1` [sorafenib] were 144 nM and greater than 90%.
The like results for `CCN(CC)CCNC(=O)c1c(C)[nH]c(/C=C2\C(=O)Nc3ccc(F)cc32)c1C` [sunitinib] were, in that order, 45.2 nM and greater than 90%.
As for `Cc1cc(Nc2cc(N3CCN(C)CC3)nc(Sc3ccc(NC(=O)C4CC4)cc3)n2)[nH]n1` [tozasertib], the “inhibition of RET mutants (in words)” value in [3] was “can inhibit”.
As for EGFR/ErbB2/ErbB4 Inhibitor, the “apparent IC50 against all T790M EGFR kinases (in words)” value in [4] is listed as “low nanomolar”. Besides, at ERBB4, the “inhibition of ERBB4” value is listed as “more than 50%”. The “inhibition of BLK” value against BLK is listed as “more than 50%”. The “inhibition of RIPK2” value against RIPK2 was “more than 50%”. Also, the “inhibition of TXK” value on TXK is listed as “more than 50%”. On JAK3, the “inhibition of JAK3” value is “more than 50%”. The “inhibition of CLK3” value on CLK3 was “more than 50%”. On BTK, the “inhibition of BTK” value was “more than 50%”.
Take Flt-3 Inhibitor: the “inhibition of LRRK2 mutants (in words)” value in the assay on LRRK2 mutants is on record as “inhibit”.
On to Jak3 Inhibitor II, for which the “inhibition of LRRK2 mutants (in words)” value with LRRK2 mutants was “inhibit”.
For the molecule bosutinib isomer, the “inhibition of crizotinib-resistant L1196M ALK (in words)” value against L1196M ALK was “inhibitor”.

(Values after paper PMC4740242 (Cell reports, 2016).)
